The record followed here is patent publication US11921308B2, “Polarizer and image display device” (FUJIFILM Corporation, priority 2018, dated 2024).

SMILES strings stand for the structures.

Series [1] can be described thus: maximum absorption wavelength of the dichroic material from ultraviolet visible spectrum in solution. Type of series: physicochemical. Particulars: solution in a good solvent, 380 to 800 nm. From the text: Here, the maximum absorption wavelength (nm) of the dichroic material is acquired from an ultraviolet visible spectrum in a wavelength range of 380 to 800 nm measured by a spectrophotometer using a solution prepared by dissolving the dichroic material in a good solvent.

Series [2] can be described thus: compatibility between liquid crystal compound and dichroic material (phase separation observed on hot stage under polarizing microscope). It is filed as physicochemical. Further details: key: Compatible: in a case where phase separation is not observed, it is defined as “compatible”; Incompatible: in a case where phase separation is observed, it is defined as “incompatible”. The note with it: for First dichroic material Compatible or incompatible: with the liquid crystal compound of the same composition; for Second dichroic material Compatible or incompatible: with the liquid crystal compound of the same composition (same example). From the text: Here, the compatibility between the liquid crystal compound and the dichroic material can be confirmed by the following method.
First, two polarizers of an optical microscope (ECLIPSE E600 POL, manufactured by Nikon Corporation) are arranged so as to be orthogonal to each other, and a sample stand is set between the two polarizers.
Next, a sample composition obtained by mixing the liquid crystal compound contained in the polarizer-forming composition and a certain kind of dichroic material at a mass ratio is cast on glass, and this glass is set on a hot stage placed on the sample stand.
Next, the phase separation state of the sample is observed by raising or lowering the temperature of the hot stage in a range of higher than or equal to a higher temperature between the melting point of the liquid crystal compound and the melting point of the dichroic material and lower than or equal to a lower temperature between the isotropic phase transition temperature of the liquid crystal compound and the isotropic phase transition temperature of the dichroic material.
In this operation, in a case where phase separation is not observed, it is defined as “compatible”. Further, in a case where phase separation is observed, it is defined as “incompatible”.
Further, the compatibility between the liquid crystal compound and the first dichroic material or the second dichroic material in the polarizer-forming composition was confirmed by the method described above, and the results thereof are listed in Table 1.

[3] abbreviates: first listed first dichroic material.
Setting [4] is: second listed first dichroic material.

As to `C=CC(=O)OCCCCCOc1ccc(N=Nc2ccc(N=Nc3ccc(N=Nc4ccc(OCCCCCOC(=O)C=C)cc4)cc3C)cc2)cc1` [Example Y3], the maximum absorption wavelength in series [1] stood at 413 nm. For the same compound, the “First dichroic material Compatible or incompatible” value in series [2] (setting [3]) is reported as “Compatible”.

In the case of `CCCCc1ccc(N=Nc2ccc(N=Nc3ccc(N(CC)CCC#N)cc3)cc2)cc1` [Example M2], the maximum absorption wavelength in series [1] came out at 457 nm. In addition, the “First dichroic material Compatible or incompatible” value in series [2] (setting [4]) was “Compatible”.

Take `C=CC(=O)CCCN(CC)c1ccc(N=Nc2ccc(N=Nc3ccc(CCCC)cc3)cc2)cc1` [Example M3]: the maximum absorption wavelength in series [1] was determined as 442 nm. The “First dichroic material Compatible or incompatible” value in series [2] (setting [4]) is “Compatible”.

Compound `C=CC(=O)OCCCCCCCCCCOc1ccc(N=Nc2cc3sc(N=Nc4ccc(N(CC)CCOC(=O)C=C)cc4)nc3s2)cc1` [Example C2] gave a maximum absorption wavelength in series [1] of 592 nm. Further, the “Second dichroic material Compatible or incompatible” value in series [2] is on record as “Incompatible”.

`C=CC(=O)OCCCCCCCCCOc1ccc(N=Nc2cc3sc(N=Nc4ccc(N(CC)CCOC(=O)C=C)cc4C)nc3s2)cc1` [Example C3] came in with a maximum absorption wavelength in series [1] of 605 nm. The “Second dichroic material Compatible or incompatible” value in series [2] was “Incompatible”.

In series [1], `C=CC(=O)OCCN(CC)c1ccc(N=Nc2nc3sc(N=Nc4ccc(OCCCCCCCCCOC(=O)CC)cc4)cc3s2)cc1` [Example C4] came in with a maximum absorption wavelength of 592 nm. Also, in series [2], the “Second dichroic material Compatible or incompatible” value is listed as “Incompatible”.

For the compound `C=CC(=O)CC(C)OC(=O)CCC(=O)OCCc1ccc(N=Nc2cc3sc(NC(=O)c4ccc(CCCC)cc4)nc3s2)cc1` (stereo not drawn) [Example Y8], in series [1], the maximum absorption wavelength was 430 nm. The “First dichroic material Compatible or incompatible” value in series [2] (setting [3]) is “Compatible”.

Consider `C=CC(=O)OCCCCOc1ccc(N=Nc2ccc(N=Nc3ccc(N=Nc4ccc(OCCCCOC(=O)C=C)cc4)cc3C)cc2)cc1` [Example Y1], for which the maximum absorption wavelength in series [1] came out at 413 nm. In addition, the “First dichroic material Compatible or incompatible” value in series [2] (setting [3]) is recorded as “Compatible”.

As to `C=CC(=O)OCCCCCCCCCCCCOc1ccc(N=Nc2ccc(N=Nc3ccc(N=Nc4ccc(OCCCCCCCCCCCCOC(=O)C=C)cc4O)cc3)c(C)c2)cc1` [Example Y4], the maximum absorption wavelength in series [1] is recorded as 445 nm. Moreover, the “Second dichroic material Compatible or incompatible” value in series [2] is on record as “Incompatible”.

In turn, `C=CC(=O)OCCCCCCCCCOc1ccc(N=Nc2cc3sc(N=Nc4ccc(N(CC)CCOC(=O)C=C)cc4)nc3s2)cc1` [Example C1] had a maximum absorption wavelength in series [1] of 592 nm. Further, in series [2], the “Second dichroic material Compatible or incompatible” value was “Incompatible”.

With `C=CC(=O)OCCCCCCCCCCCOc1ccc(N=Nc2cc3sc(NC(=O)c4ccc(CCCC)cc4)nc3s2)cc1` [Example Y7], the maximum absorption wavelength in series [1] was 443 nm. Also, the “Second dichroic material Compatible or incompatible” value in series [2] was “Incompatible”.

`C=CC(=O)OCCCCCCOc1ccc(N=Nc2ccc(N=Nc3ccc(N=Nc4ccc(OCCCCCCOC(=O)C=C)cc4)cc3C)cc2)cc1` [Example Y5]: in series [1], the maximum absorption wavelength is recorded as 413 nm. In series [2] (setting [3]), the “First dichroic material Compatible or incompatible” value is “Compatible”.

In the case of `FC(F)(F)c1ccc(N=Nc2ccc(N=Nc3ccc(N4CCCC4)cc3)cc2)cc1` [Example M1], the maximum absorption wavelength in series [1] came out at 502 nm. The “First dichroic material Compatible or incompatible” value in series [2] (setting [4]) is “Compatible”.

On to `C=CC(=O)OCCN(CC)c1ccc(N=Nc2nc3sc(N=Nc4ccc(OCCCCCCOC(C)=O)cc4)cc3s2)cc1` [Example C5], for which the maximum absorption wavelength in series [1] was determined as 592 nm. Further, the “First dichroic material Compatible or incompatible” value in series [2] (setting [3]) and in series [2] (setting [4]) was “Compatible” each time.

Compound `C=CC(=O)OCCCCCCCCOc1ccc(N=Nc2ccc(N=Nc3ccc(N=Nc4ccc(OCCCCCCCCOC(=O)C=C)cc4)cc3C)cc2)cc1` [Example Y6] gave a maximum absorption wavelength in series [1] of 413 nm. Besides, the “First dichroic material Compatible or incompatible” value in series [2] (setting [3]) is recorded as “Compatible”.

In the case of `C=CC(=O)OCCCCOc1ccc(N=Nc2ccc(N=Nc3ccc(N=Nc4ccc(OCCCCOC(=O)C=C)cc4O)cc3)c(C)c2)cc1` [Example Y2], the maximum absorption wavelength in series [1] is 445 nm. In addition, in series [2] (setting [3]), the “First dichroic material Compatible or incompatible” value is “Compatible”.
